Data published in PubChem BioAssay (NCI).
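Dose response: 5 concentrations. Exposure: 48 h. Format: 96-well plates. Endpoint: linear interpolation; highest concentration if not reached. Abbreviation: GI50, concentration required for 50% inhibition of growth. TGI: concentration producing complete growth inhibition.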

Legend:
Experiment in all cases: inhibition of tumour cell growth, NCI panel, 48 h
786-0 renal = tested on: 786-0 renal
IGROV1 ovarian = tested on: IGROV1 ovarian
T-47D breast = tested on: T-47D breast
SK-MEL-2 melanoma = tested on: SK-MEL-2 melanoma
MCF7 breast = tested on: MCF7 breast
HCC-2998 colon = tested on: HCC-2998 colon
HS 578T breast = tested on: HS 578T breast
MDA-MB-435 = tested on: MDA-MB-435
MALME-3M melanoma = tested on: MALME-3M melanoma
OVCAR-5 ovarian = tested on: OVCAR-5 ovarian
K-562 leukemia = tested on: K-562 leukemia
NCI-H460 lung = tested on: NCI-H460 lung
HT29 colon = tested on: HT29 colon
OVCAR-8 ovarian = tested on: OVCAR-8 ovarian
U251 CNS = tested on: U251 CNS
EKVX NSCLC = tested on: EKVX NSCLC
CCRF-CEM leukemia = tested on: CCRF-CEM leukemia
NCI-H522 lung = tested on: NCI-H522 lung
KM12 colon = tested on: KM12 colon
NCI-H23 lung = tested on: NCI-H23 lung
LOX IMVI melanoma = tested on: LOX IMVI melanoma
HOP-62 NSCLC = tested on: HOP-62 NSCLC
HOP-92 NSCLC = tested on: HOP-92 NSCLC
M14 melanoma = tested on: M14 melanoma
MOLT-4 leukemia = tested on: MOLT-4 leukemia
CAKI-1 renal = tested on: CAKI-1 renal
HCT-15 colon = tested on: HCT-15 colon
SN12C renal = tested on: SN12C renal
PC-3 prostate = tested on: PC-3 prostate
UACC-257 melanoma = tested on: UACC-257 melanoma
SF-295 CNS = tested on: SF-295 CNS
RXF 393 renal = tested on: RXF 393 renal
RPMI-8226 leukemia = tested on: RPMI-8226 leukemia
SF-539 CNS = tested on: SF-539 CNS
MDA-MB-468 breast = tested on: MDA-MB-468 breast
SK-MEL-28 melanoma = tested on: SK-MEL-28 melanoma
SK-OV-3 ovarian = tested on: SK-OV-3 ovarian
COLO 205 colon = tested on: COLO 205 colon
SNB-19 CNS = tested on: SNB-19 CNS
ACHN renal = tested on: ACHN renal
UACC-62 melanoma = tested on: UACC-62 melanoma
NCI-H226 lung = tested on: NCI-H226 lung
OVCAR-4 ovarian = tested on: OVCAR-4 ovarian
UO-31 renal = tested on: UO-31 renal
MDA-MB-231 breast = tested on: MDA-MB-231 breast
TK-10 renal = tested on: TK-10 renal
SK-MEL-5 melanoma = tested on: SK-MEL-5 melanoma
SR leukemia = tested on: SR leukemia
A498 renal = tested on: A498 renal
SF-268 CNS = tested on: SF-268 CNS
BT-549 breast = tested on: BT-549 breast
SNB-75 CNS = tested on: SNB-75 CNS
DU-145 prostate = tested on: DU-145 prostate
NCI/ADR-RES ovarian = tested on: NCI/ADR-RES ovarian
HCT-116 colon = tested on: HCT-116 colon
OVCAR-3 ovarian = tested on: OVCAR-3 ovarian
HL-60(TB) leukemia = tested on: HL-60(TB) leukemia

Compound: Cn1cc(-c2cc3nc(-c4c[nH]c5ccccc45)cc(N)n3n2)c2cc(Cl)ccc21
- GI50 (786-0 renal): 1.64 µM
- TGI (786-0 renal): 3.12 µM
- GI50 (IGROV1 ovarian): 2.53 µM
- TGI (IGROV1 ovarian): 7.62 µM
- GI50 (T-47D breast): 1.76 µM
- TGI (T-47D breast): 3.82 µM
- GI50 (SK-MEL-2 melanoma): 2.11 µM
- TGI (SK-MEL-2 melanoma): 4.63 µM
- GI50 (MCF7 breast): 1.66 µM
- TGI (MCF7 breast): 3.31 µM
- GI50 (HCC-2998 colon): 1.87 µM
- TGI (HCC-2998 colon): 3.5 µM
- GI50 (HS 578T breast): 2.38 µM
- TGI (HS 578T breast): 6.49 µM
- GI50 (MDA-MB-435): 1.79 µM
- TGI (MDA-MB-435): 3.32 µM
- GI50 (MALME-3M melanoma): 1.7 µM
- TGI (MALME-3M melanoma): 3.26 µM
- GI50 (OVCAR-5 ovarian): 1.81 µM
- TGI (OVCAR-5 ovarian): 4.22 µM
- GI50 (K-562 leukemia): 2.26 µM
- TGI (K-562 leukemia): 6.3 µM
- GI50 (NCI-H460 lung): 2.36 µM
- TGI (NCI-H460 lung): 5.56 µM
- GI50 (HT29 colon): 1.93 µM
- TGI (HT29 colon): 3.99 µM
- GI50 (OVCAR-8 ovarian): 2.23 µM
- TGI (OVCAR-8 ovarian): 5.07 µM
- GI50 (U251 CNS): 1.8 µM
- TGI (U251 CNS): 3.61 µM
- GI50 (EKVX NSCLC): 2.12 µM
- TGI (EKVX NSCLC): 6.03 µM
- GI50 (CCRF-CEM leukemia): 4.4 µM
- TGI (CCRF-CEM leukemia): > 100 µM
- GI50 (NCI-H522 lung): 1.75 µM
- TGI (NCI-H522 lung): 3.75 µM
- GI50 (KM12 colon): 1.99 µM
- TGI (KM12 colon): 4.24 µM
- GI50 (NCI-H23 lung): 2.26 µM
- TGI (NCI-H23 lung): 5.58 µM
- GI50 (LOX IMVI melanoma): 1.71 µM
- TGI (LOX IMVI melanoma): 3.15 µM
- GI50 (HOP-62 NSCLC): 2.12 µM
- TGI (HOP-62 NSCLC): 5.31 µM
- GI50 (HOP-92 NSCLC): 1.99 µM
- TGI (HOP-92 NSCLC): 4.1 µM
- GI50 (M14 melanoma): 1.77 µM
- TGI (M14 melanoma): 3.36 µM
- GI50 (MOLT-4 leukemia): 2.71 µM
- TGI (MOLT-4 leukemia): 11.1 µM
- GI50 (CAKI-1 renal): 1.66 µM
- TGI (CAKI-1 renal): 3.2 µM
- GI50 (HCT-15 colon): 1.62 µM
- TGI (HCT-15 colon): 3.35 µM
- GI50 (SN12C renal): 1.9 µM
- TGI (SN12C renal): 4.15 µM
- GI50 (PC-3 prostate): 2.97 µM
- TGI (PC-3 prostate): 9.37 µM
- GI50 (UACC-257 melanoma): 1.68 µM
- TGI (UACC-257 melanoma): 3.25 µM
- GI50 (SF-295 CNS): 1.78 µM
- TGI (SF-295 CNS): 3.53 µM
- GI50 (RXF 393 renal): 1.87 µM
- TGI (RXF 393 renal): 3.81 µM
- GI50 (RPMI-8226 leukemia): 2.94 µM
- TGI (RPMI-8226 leukemia): 9.18 µM
- GI50 (SF-539 CNS): 1.73 µM
- TGI (SF-539 CNS): 3.19 µM
- GI50 (MDA-MB-468 breast): 1.62 µM
- TGI (MDA-MB-468 breast): 3.37 µM
- GI50 (SK-MEL-28 melanoma): 1.7 µM
- TGI (SK-MEL-28 melanoma): 3.12 µM
- GI50 (SK-OV-3 ovarian): 2.24 µM
- TGI (SK-OV-3 ovarian): 5.62 µM
- GI50 (COLO 205 colon): 1.89 µM
- TGI (COLO 205 colon): 3.59 µM
- GI50 (SNB-19 CNS): 3.29 µM
- TGI (SNB-19 CNS): 13.8 µM
- GI50 (ACHN renal): 1.75 µM
- TGI (ACHN renal): 3.41 µM
- GI50 (UACC-62 melanoma): 1.8 µM
- TGI (UACC-62 melanoma): 3.51 µM
- GI50 (NCI-H226 lung): 16.9 µM
- TGI (NCI-H226 lung): 44 µM
- GI50 (OVCAR-4 ovarian): 1.82 µM
- TGI (OVCAR-4 ovarian): 3.49 µM
- GI50 (UO-31 renal): 1.72 µM
- TGI (UO-31 renal): 3.25 µM
- GI50 (MDA-MB-231 breast): 2.31 µM
- TGI (MDA-MB-231 breast): 5.24 µM
- GI50 (TK-10 renal): 2.03 µM
- TGI (TK-10 renal): 5.36 µM
- GI50 (SK-MEL-5 melanoma): 1.98 µM
- TGI (SK-MEL-5 melanoma): 4.09 µM
- GI50 (SR leukemia): 2.61 µM
- TGI (SR leukemia): 9.11 µM
- GI50 (A498 renal): 3.16 µM
- TGI (A498 renal): 11.1 µM
- GI50 (SF-268 CNS): 2.16 µM
- TGI (SF-268 CNS): 5.44 µM
- GI50 (BT-549 breast): 12.9 µM
- TGI (BT-549 breast): 32.2 µM
- GI50 (SNB-75 CNS): 1.52 µM
- TGI (SNB-75 CNS): 3.06 µM
- GI50 (DU-145 prostate): 3.62 µM
- TGI (DU-145 prostate): 13.4 µM
- GI50 (NCI/ADR-RES ovarian): 2.46 µM
- TGI (NCI/ADR-RES ovarian): 6.8 µM
- GI50 (HCT-116 colon): 1.75 µM
- TGI (HCT-116 colon): 3.24 µM
- GI50 (OVCAR-3 ovarian): 2.23 µM
- TGI (OVCAR-3 ovarian): 4.76 µM
- GI50 (HL-60(TB) leukemia): 1.94 µM
- TGI (HL-60(TB) leukemia): 5.01 µM
